# Reference: ChEMBL document CHEMBL3396999, “2-Benzisothiazolylimino-5-benzylidene-4-thiazolidinones as protective agents against cartilage destruction” (Bioorg Med Chem, 2015)
# Calls of active or inactive are those of the source. The rule behind the calls is not given here.
# Tests used:
# [1] = Chondroprotective activity in IL-1beta-induced normal human articular chondrocytes assessed as increase in glycosaminoglycans level at 10 uM by 1,9-dimethylmethylene blue staining based spectrophotometry relative to IL-1beta; type: functional
# [2] = Chondroprotective activity in IL-1beta-induced normal human articular chondrocytes assessed as reduction in nitric oxide level at 10 uM after 120 hrs by Griess reagent based method; type: functional
# [3] = biological target: Stromelysin-1 (Homo sapiens, UniProt P08254); assay: Inhibition of MMP3 catalytic domain (unknown origin) assessed as reduction in hydrolysis of Mca-Pro-Leu-Gly-Leu-Dpa-Ala-Arg-NH2 substrate measured for 3 mins after substrate addition by fluorescence assay
# Chain of Stromelysin-1 (P08254 whole entry, the tested form may be a part): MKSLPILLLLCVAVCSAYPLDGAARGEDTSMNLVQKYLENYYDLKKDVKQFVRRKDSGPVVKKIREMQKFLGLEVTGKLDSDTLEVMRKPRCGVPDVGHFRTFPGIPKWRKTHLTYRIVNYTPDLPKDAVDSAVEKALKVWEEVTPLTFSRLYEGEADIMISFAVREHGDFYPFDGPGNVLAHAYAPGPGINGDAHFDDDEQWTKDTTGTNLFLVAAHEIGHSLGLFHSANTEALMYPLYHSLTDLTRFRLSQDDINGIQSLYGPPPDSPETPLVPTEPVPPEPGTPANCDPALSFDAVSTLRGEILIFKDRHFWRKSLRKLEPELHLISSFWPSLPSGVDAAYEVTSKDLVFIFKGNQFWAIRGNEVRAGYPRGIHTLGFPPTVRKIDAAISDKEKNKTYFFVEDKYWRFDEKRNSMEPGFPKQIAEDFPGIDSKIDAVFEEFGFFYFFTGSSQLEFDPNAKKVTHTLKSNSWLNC
# [4] = biological target: Collagenase 3 (Homo sapiens, UniProt P45452); assay: Inhibition of MMP13 catalytic domain (unknown origin) assessed as reduction in hydrolysis of Mca-Pro-Leu-Gly-Leu-Dpa-Ala-Arg-NH2 substrate measured for 3 mins after substrate addition by fluorescence assay
# [5] = Antioxidant activity assessed as AAPH radical scavenging activity assessed as Trolox equivalents by ORAC assay; type: physicochemical
# [6] = Toxicity against normal human articular chondrocytes assessed as reduction in cell viability by MTT assay
# [7] = biological target: Nuclear factor NF-kappa-B complex (Homo sapiens) (UniProt Q00653+P19838+Q04206); assay: Inhibition of nuclear factor-kappa-B in IL-1beta-induced normal human articular chondrocytes at 10 uM after 120 hrs by Western blotting method
# Chain of Nuclear factor NF-kappa-B complex (Homo sapiens) (P19838 whole entry, looked up): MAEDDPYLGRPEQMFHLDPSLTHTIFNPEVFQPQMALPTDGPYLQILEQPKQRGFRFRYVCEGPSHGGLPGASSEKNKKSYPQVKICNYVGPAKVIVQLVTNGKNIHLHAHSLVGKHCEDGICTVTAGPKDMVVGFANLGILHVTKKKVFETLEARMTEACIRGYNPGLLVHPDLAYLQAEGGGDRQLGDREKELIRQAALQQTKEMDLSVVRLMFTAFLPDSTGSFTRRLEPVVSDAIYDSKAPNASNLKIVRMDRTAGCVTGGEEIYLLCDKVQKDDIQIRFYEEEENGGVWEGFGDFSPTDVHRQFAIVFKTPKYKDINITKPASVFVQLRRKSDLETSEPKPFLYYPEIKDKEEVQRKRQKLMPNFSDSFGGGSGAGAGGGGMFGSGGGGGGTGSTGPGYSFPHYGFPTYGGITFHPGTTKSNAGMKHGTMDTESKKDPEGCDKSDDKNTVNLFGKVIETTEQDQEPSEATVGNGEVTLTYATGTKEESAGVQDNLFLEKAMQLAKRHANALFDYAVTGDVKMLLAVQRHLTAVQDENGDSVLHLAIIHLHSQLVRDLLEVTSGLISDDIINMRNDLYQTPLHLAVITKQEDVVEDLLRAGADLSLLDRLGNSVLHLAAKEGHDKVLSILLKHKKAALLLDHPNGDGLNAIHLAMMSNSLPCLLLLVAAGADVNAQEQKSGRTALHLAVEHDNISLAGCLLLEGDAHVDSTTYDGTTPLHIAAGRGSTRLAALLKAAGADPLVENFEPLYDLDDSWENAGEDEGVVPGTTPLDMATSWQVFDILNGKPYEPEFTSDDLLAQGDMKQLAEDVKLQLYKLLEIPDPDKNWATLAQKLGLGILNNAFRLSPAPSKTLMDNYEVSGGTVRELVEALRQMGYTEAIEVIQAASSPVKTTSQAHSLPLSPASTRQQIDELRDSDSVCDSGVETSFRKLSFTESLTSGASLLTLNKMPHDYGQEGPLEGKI
# Chain of Nuclear factor NF-kappa-B complex (Homo sapiens) (Q00653 whole entry, looked up): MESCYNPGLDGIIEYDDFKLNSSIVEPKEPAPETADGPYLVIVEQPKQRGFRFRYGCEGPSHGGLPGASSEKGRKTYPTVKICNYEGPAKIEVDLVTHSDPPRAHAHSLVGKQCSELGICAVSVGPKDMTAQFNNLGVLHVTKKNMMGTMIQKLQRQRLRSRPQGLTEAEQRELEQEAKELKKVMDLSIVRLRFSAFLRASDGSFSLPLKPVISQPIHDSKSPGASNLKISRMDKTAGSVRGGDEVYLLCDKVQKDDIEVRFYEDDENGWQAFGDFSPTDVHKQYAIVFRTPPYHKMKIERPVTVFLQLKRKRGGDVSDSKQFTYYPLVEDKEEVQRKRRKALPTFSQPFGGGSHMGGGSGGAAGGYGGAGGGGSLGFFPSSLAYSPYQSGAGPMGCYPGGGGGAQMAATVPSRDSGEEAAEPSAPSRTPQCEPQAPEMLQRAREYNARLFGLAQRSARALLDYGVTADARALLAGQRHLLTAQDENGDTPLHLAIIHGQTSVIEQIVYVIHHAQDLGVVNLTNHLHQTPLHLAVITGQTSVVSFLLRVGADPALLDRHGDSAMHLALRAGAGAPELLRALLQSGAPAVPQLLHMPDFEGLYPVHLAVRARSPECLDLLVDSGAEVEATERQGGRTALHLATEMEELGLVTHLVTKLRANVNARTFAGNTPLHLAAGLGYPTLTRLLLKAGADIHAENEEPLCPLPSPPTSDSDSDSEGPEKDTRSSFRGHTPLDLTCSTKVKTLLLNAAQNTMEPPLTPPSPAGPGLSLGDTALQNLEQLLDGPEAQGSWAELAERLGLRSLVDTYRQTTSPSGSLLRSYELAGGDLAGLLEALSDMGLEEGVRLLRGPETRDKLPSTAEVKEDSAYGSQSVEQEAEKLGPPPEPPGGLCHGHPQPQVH
# Chain of Nuclear factor NF-kappa-B complex (Homo sapiens) (Q04206 whole entry, looked up): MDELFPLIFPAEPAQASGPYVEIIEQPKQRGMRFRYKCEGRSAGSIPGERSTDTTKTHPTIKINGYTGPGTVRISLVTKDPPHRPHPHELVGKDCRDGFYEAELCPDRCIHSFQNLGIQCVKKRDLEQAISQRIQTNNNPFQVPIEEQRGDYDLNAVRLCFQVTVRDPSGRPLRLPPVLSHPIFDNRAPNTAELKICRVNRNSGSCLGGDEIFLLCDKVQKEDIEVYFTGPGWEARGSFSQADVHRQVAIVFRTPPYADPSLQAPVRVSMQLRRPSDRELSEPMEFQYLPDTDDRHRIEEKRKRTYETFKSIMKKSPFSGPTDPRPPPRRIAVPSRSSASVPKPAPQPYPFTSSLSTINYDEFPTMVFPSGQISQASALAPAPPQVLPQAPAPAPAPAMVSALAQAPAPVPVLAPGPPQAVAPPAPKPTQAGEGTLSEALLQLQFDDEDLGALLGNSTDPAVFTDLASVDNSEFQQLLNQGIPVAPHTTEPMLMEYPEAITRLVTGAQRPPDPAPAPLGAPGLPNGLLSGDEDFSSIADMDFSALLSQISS
# [8] = Chondroprotective activity in IL-1beta-induced normal human articular chondrocytes assessed as MMP13 protein release at 10 uM after 120 hrs by ELISA method (reference value: 112 ng/ml); type: functional
SMILES,IC50 [3],IC50 [4],Activity [5],inhibition [7],Activity [1],inhibition at 10 µM [2],Activity [6],Activity [8]
O=C1N/C(=N/c2nsc3ccccc23)S/C1=C\c1cccc([N+](=O)[O-])c1,≥ 100 µM,55.9 µM,>= 100,–,37%,46%,Non-toxic,–
COc1cc(/C=C2\S/C(=N\c3nsc4ccccc34)NC2=O)ccc1O,3.15 µM,≥ 100 µM,1.35,Active,40%,66%,Non-toxic,4.3 ng/mL
O=C1N/C(=N/c2nsc3ccccc23)S/C1=C\c1ccccc1[N+](=O)[O-],43 µM,64 µM,>= 100,–,31%,48%,Non-toxic,–
O=C1N/C(=N/c2nsc3ccccc23)S/C1=C\c1ccccc1,≥ 100 µM,32 µM,–,–,28%,42%,Non-toxic,–

# Further lines, with some results ahead:
IC50 [3],IC50 [4],Activity [5],inhibition [7],SMILES,Activity [1],inhibition at 10 µM [2],Activity [6],Activity [8]
65 µM,25 µM,1.64,–,O=C1N/C(=N/c2nsc3ccccc23)S/C1=C\c1ccc(Cl)cc1,30%,46%,Non-toxic,–
97.4 µM,≥ 100 µM,0.8,–,O=C1N/C(=N/c2nsc3ccccc23)S/C1=C/c1ccccc1O,40%,29%,Non-toxic,–
6.19 µM,89.4 µM,0.45,–,O=C1N/C(=N/c2nsc3ccccc23)S/C1=C\c1ccccc1Cl,34%,13%,Non-toxic,–
≥ 100 µM,26.9 µM,1.2,–,O=C1N/C(=N/c2nsc3ccccc23)S/C1=C/c1cccc(O)c1,32%,9%,Non-toxic,–
